Where “and” joins values, the source holds several entries; their conditions need not be identical. Identical values can stand only once.
Key:
M^pro L50F/E166A/L167F = M^pro L50F/E166A/L167F (Severe acute respiratory syndrome coronavirus 2, UniProt P0DTD1, E3429A/L3313F/L3430F); settings: for K M / k cat: pH 7.6
[1] = biological target: SARS-CoV-2 M^pro L50F/E166A/L167F (Severe acute respiratory syndrome coronavirus 2, UniProt P0DTD1, E3429A/L3313F/L3430F); type: biochemical

| Compound | Km (M^pro L50F/E166A/L167F) | K M (M^pro L50F/E166A/L167F) | k cat (M^pro L50F/E166A/L167F) | inhibition of L50F/E166A/L167F, result in words [1] | other results |
| --- | --- | --- | --- | --- | --- |
| 2-Abz-KTSAVLQ↓SGY^(NO2)RKME-OH | 250 µM | 250 µM | 0.19 ± 0.04 s⁻¹ |  |  |
| 2-Abz-SVTLQ↓SGY^(NO2)R-OH | 320 µM | 320 µM | 0.26 s⁻¹ and 0.26 ± 0.05 s⁻¹ |  | lower catalytic efficiency of the M^pro triple mutant compared to the WT M^pro (M^pro L50F/E166A/L167F): ~35 times |
| COc1cccc2[nH]c(C(=O)N3C[C@H](C(F)(F)F)C[C@H]3C(=O)N[C@H](C#N)C[C@@H]3CCNC3=O)cc12 [compound 1] |  |  |  | inactive |  |
| CC(C)C[C@H](NC(=O)OCc1cccc(F)c1)C(=O)N[C@@H](Cc1cscn1)C(O)S(=O)(=O)O (some centres unmarked) [compound 2] |  |  |  | does not significantly alter binding potency |  |
| O=C(NC(Cc1ccccc1)C(=O)NC(CC1CCNC1=O)C(O)S(=O)(=O)O)OCc1cccc(F)c1 (centres unmarked) [compound 3] |  |  |  | inactive |  |
| COc1cccc2[nH]c(C(=O)NC(CC3CC3)C(=O)NC(CC3CCNC3=O)C(O)S(=O)(=O)O)cc12 (centres unmarked) [compound 4] |  |  |  |  | improvement in inhibition compared to nirmatrelvir [1]: approximately 30 fold |

— article PMC12356143 (RSC Medicinal Chemistry, 2025)
